Test results as given in patent US20130129841A1, “THERAPEUTIC COMBINATION COMPRISING A PARP-1 INHIBITOR AND AN ANTI-NEOPLASTIC AGENT” (NERVIANO MEDICAL SCIENCES S.r.l., priority 2010, published 2013).
Like-named read-outs stand apart in the source and are kept apart here.

Legend:
[1] = system: A-375 human melanoma cell line; assay: In vitro combination cytotoxic activity, cell proliferation (CellTiterGlo), 6 days; assay type: cell-based; details: single agent
Protocol: Materials and methods. […] Drugs were added to the experimental culture, and incubations were carried out at 37° C. for 6 days in the dark. Serial dilution curves were prepared in medium by using a liquid handler Multiprobe II (PerkinElmer). Scalar doses of the compound of formula (I) and antineoplastic agents were added to the medium 24 hours after seeding. Drug solutions were prepared immediately before use. At the end of treatment, cell proliferation was determined by an intracellular adenosine triphosphate monitoring system (CellTiterGlo- Promega) using an Envision (PerkinElmer) reader. Inhibitory activity was evaluated comparing treated versus control data using the Assay Explorer (MDL) program. The dose inhibiting 50% of cell growth was calculated using sigmoidal interpolation curve.

[2] = system: HCT-116 human colon cancer cell line; assay: as above; assay type: cell-based; details: single agent
Protocol: (§1) Materials and methods. Exponentially growing human cancer cell line (MDA-MB-436, MDA-MB-468, A-375, HCT-116, KM-12) was seeded and incubated at 37° C. in a humidified 5% CO2 atmosphere. Drugs were added to the experimental culture, and incubations were carried out at 37° C. for 6 days in the dark. Serial dilution curves were prepared in medium by using a liquid handler Multiprobe II (PerkinElmer). Scalar doses of the compound of formula (I) and antineoplastic agents were added to the medium 24 hours after seeding. Drug solutions were prepared immediately before use. At the end of treatment, cell proliferation was determined by an intracellular adenosine triphosphate monitoring system (CellTiterGlo- Promega) using an Envision (PerkinElmer) reader. Inhibitory activity was evaluated comparing treated versus control data using the Assay Explorer (MDL) program. The dose inhibiting 50% of cell growth was calculated using sigmoidal interpolation curve.

[3] = system: KM-12 human colon cancer cell line; assay: as above; assay type: cell-based
Protocol: as §1

[4] = system: Capan-1 BRCA-2 mutated human pancreatic xenograft model; details: for Toxicity: number of death animals
Protocol: (§2) Balb, Nu/Nu male mice, from Harlan (Italy) or CD1 Nu/Nu female mice from CRI, were maintained in agreement with the European Communities Council Directive no. 86/609/EEC, in cages with paper filter cover, food and bedding sterilized and acidified water. Fragments of Capan-1 human pancreatic cancer tumors, MX-1 human breast cancer tumors and HCT-116 human colon carcinoma were implanted subcutaneously. KM-12 cells were grown in vitro and 3×106 in 0,2 ml were implanted subcutaneously. The treatment started when tumors were palpable.
(§3) Compounds of formula (I) were administered by oral route in a volume of 10 ml/kg at the indicated doses from day 1 to 12. Temozolomide was administered orally at the dose of 62.5 mg/kg for 5 days. When combined, compound of formula (I) was administered from day 1 to 12 and temozolomide from day 3 to day 7. Irinotecan was administered intravenous at the dose of 45 mg/kg 2 or 3 times every 4 days. When combined, compound of formula (I) was administered from day 1 to 8 or to 12 and irinotecan on day 3 and day 7 or and days 1, 5 and 9. Docetaxel was administered intravenously at the dose of 5 mg/kg once a week for three times. When combined, compound of formula (I) was administered from day 1 to 12 and docetaxel on days 1, 8 and 15.
(§4) Tumor growth and body weight were measured every 3 days. Tumor growth was assessed by caliper. The two diameters were recorded and the tumor weight was calculated according the following formula: length (mm)×width^2 /2. The effect of the antitumor treatment was evaluated as the delay in the onset of an exponential growth of the tumor (see for references Anticancer drugs 7:437-60, 1996). This delay (T-C value) was defined as the difference of time (in days) required for the treatment group (T) and the control group (C) tumors to reach a predetermined size (1 g). Toxicity was evaluated on the basis of number of death animals during the experiment.

[5] = system: HCT-116 human colorectal cancer xenograft model
Protocol: as §2, §3, §4

[6] = system: KM-12 human colorectal cancer xenograft model pTEN mutated
Protocol: as §2, §3, §4

[7] = system: MX-1 human breast cancer xenograft model BRCA-1 mutated; details: MX-1 xenograft; for Toxicity: number of death animals
Protocol: as §2, §3, §4

[8] = system: ovarian cancer patients with confirmed BRCA-1 mutations; details: phase I, monotherapy, oral, preliminary data; cited from earlier work
[9] = Capan-1, Table 9, Compound 2 50 mg/kg oral, days 1 to 12
[10] = Compound 2 100 mg/kg oral, days 1 to 8 (footnote *)
[11] = docetaxel 5 mg/kg intravenous, days 1, 8 and 15
[12] = Capan-1, Table 8, temozolomide 62.5 mg/kg oral, days 3 to 7
[13] = Capan-1, Table 9, temozolomide 62.5 mg/kg oral, days 3 to 7
[14] = Capan-1, Table 8, Compound 1 100 mg/kg oral, days 1 to 12

SMILES: NC(=O)c1cc(F)cc2c1C(=O)N(C1CCN(C3CCC(F)(F)CC3)CC1)C2 [Compound 2, 2-[1-(4,4-difluorocyclohexyl)piperidin-4-yl]-6-fluoro-3-oxo-2,3-dihydro-1H-isoindole-4-carboxamide]
- IC50 [1]: 32.5 µM
- IC50 ([2]; Homo sapiens): 14.1 µM
- IC50 ([3]; Homo sapiens, KM12, single agent): 19.4 µM
- T-C [4, 9]: 6 days
- Toxicity [4, 9]: 0/7
- T-C ([5]; HCT-116 xenograft, Compound 2 50 mg/kg oral, days 1 to 8): 1 days
- T-C ([5]; HCT-116 xenograft, Compound 2 100 mg/kg oral, days 1 to 8): 4 days
- Toxicity ([5]; mouse, in vivo, po, 50 mg/kg): 0/7
- Toxicity ([5]; mouse, in vivo, po, 100 mg/kg): 0/7
- T-C ([6]; KM-12 xenograft, Compound 2 50 mg/kg oral, days 1 to 12): 1 days
- Toxicity ([6]; mouse, in vivo, po, 50 mg/kg): 0/7
- T-C [7, 10]: 2 days
- Toxicity [7, 10]: 0/7

SMILES: CC(=O)O[C@@]12CO[C@@H]1C[C@H](O)[C@@]1(C)C(=O)[C@H](O)C3=C(C)[C@@H](OC(=O)[C@H](O)[C@@H](NC(=O)OC(C)(C)C)c4ccccc4)C[C@@](O)([C@@H](OC(=O)c4ccccc4)[C@H]21)C3(C)C [Docetaxel, docetaxel, reference compound]
- T-C [7, 11]: 3 days
- Toxicity [7, 11]: 0/7

SMILES: Cn1nnc2c(C(N)=O)ncn2c1=O [Temozolomide, temozolomide, reference compound]
- IC50 [1]: 932 µM
- T-C [4, 12]: 5 days
- Toxicity [4, 12]: 0/7
- T-C [4, 13]: 9 days
- Toxicity [4, 13]: 0/7

SMILES: NC(=O)c1cccc2c1C(=O)N(C1CCN(C3CCC(F)(F)CC3)CC1)C2 [Compound 1, 2-[1-(4,4-difluorocyclohexyl)piperidin-4-yl]-3-oxo-2,3-dihydro-1H-isoindole-4-carboxamide]
- T-C [4, 14]: 5 days
- Toxicity [4, 14]: 0/7

SMILES: CCc1c2c(nc3ccc(O)cc13)-c1cc3c(c(=O)n1C2)COC(=O)[C@]3(O)CC [SN-38, reference compound]
- IC50 [2]: 0.0011 µM
- IC50 ([3]; single agent): 0.0015 µM

SMILES: CCc1c2c(nc3ccc(OC(=O)N4CCC(N5CCCCC5)CC4)cc13)-c1cc3c(c(=O)n1C2)COC(=O)[C@]3(O)CC [Irinotecan, irinotecan, reference compound]
- T-C ([5]; HCT-116 xenograft, irinotecan 45 mg/kg intravenous, days 1, 5 and 9): 16 days
- Toxicity ([5]; HCT-116 xenograft, irinotecan 45 mg/kg intravenous, days 1, 5 and 9, number of death animals): 0/7
- T-C ([6]; KM-12 xenograft, irinotecan 45 mg/kg intravenous, days 3 and 7): 1 days
- Toxicity ([6]; KM-12 xenograft, irinotecan 45 mg/kg intravenous, days 3 and 7, number of death animals): 0/7

SMILES: O=C(c1cc(Cc2n[nH]c(=O)c3ccccc23)ccc1F)N1CCN(C(=O)C2CC2)CC1 [AZD2281]
- partial responses [8]: 4 out of 10
